Laboratory results taken from ChEMBL document CHEMBL1157022, “Synthesis, cytotoxicity and DNA-binding of novel bisnaphthalimidopropyl derivatives in breast cancer MDA-MB-231 cells” (Eur J Med Chem, 2010).

Assays:
[1] = test system: CHO; assay: Cytotoxicity against CHO cells expressing MGBG polyamine transporter after 48 hrs by MTT assay; type: ADME, cell-based; conditions: Cricetulus griseus
[2] = test system: CHO-MG; assay: Cytotoxicity against MGBG polyamine transporter deficient CHO-MG cells after 48 hrs by MTT assay; type: ADME, cell-based; conditions: Cricetulus griseus
[3] = test system: MDA-MB-231; assay: Drug uptake in human MDA-MB-231 cells at 10 uM after 6 hrs by fluorescence microscopic analysis; type: ADME, cell-based; conditions: mda-mb-231, 6 h
[4] = test system: Nucleic Acid; assay: Binding affinity to calf thymus DNA assessed as temperature required to cause 50% of DNA denatured at 10 uM by thermal denaturation assay; type: nucleic-acid assay; conditions: Bos taurus
[5] = test system: MDA-MB-231; assay: Cytotoxicity against human MDA-MB-231 cells after 24 hrs by MTT assay; type: functional, cell-based; conditions: MDA-MB-231, 24 h
[6] = test system: MCF7; assay: Cytotoxicity against human MCF7 cells after 48 hrs; type: functional, cell-based; conditions: MCF7, 48 h
[7] = Cytotoxicity against human MCF10A cells after 24 hrs by MTT assay; type: cell-based; conditions: MCF-10A
[8] = test system: Nucleic Acid; assay: Displacement of ethidium bromide from calf thymus DNA assessed as decrease of fluorescence of bound ethidium bromide by fluorometric assay; type: nucleic-acid assay; conditions: Bos taurus
[9] = Cytotoxicity against human MCF10A cells after 48 hrs by MTT assay; type: cell-based; conditions: MCF-10A
[10] = test system: MGBG polyamine transporter; assay: Ratio of IC50 for MGBG polyamine transporter deficient CHO-MG cells to IC50 for CHO cells expressing MGBG polyamine transporter; type: cell-based, Cricetulus griseus; conditions: chinese hamster; read-out: Ratio IC50
[11] = test system: MDA-MB-231; assay: Cytotoxicity against human MDA-MB-231 cells after 48 hrs by MTT assay; type: functional, cell-based; conditions: MDA-MB-231, 48 h
[12] = test system: MDA-MB-231; assay: Drug uptake in human MDA-MB-231 cells at 10 uM after 0.5 hrs by fluorescence microscopic analysis; type: ADME, cell-based; conditions: mda-mb-231, 0.5 h

Row | Structure (SMILES) | IC50 [1] | IC50 [2] | Drug uptake [3] | Tm [4] | IC50 [5] | IC50 [6] | IC50 [7] | C50 [8] | IC50 [9] | selectivity ratio [10] | IC50 [11] | Drug uptake [12]
1 | Br.O=C1c2cccc3cccc(c23)C(=O)N1CCCNCCCCNCCCNCCCN1C(=O)c2cccc3cccc(c23)C1=O [BISNAPHTHALIMIDOPROPYL SPERMIDINE TRIHYDROBROMIDE] | 76.5 µM | 74.6 µM | Active | 91.5 °C | 12.7 µM | 1.38 µM | 4.19 µM | 1.4 µM | 3.97 µM | 1 | 4.59 µM | 
2 | O=C1c2cccc3cccc(c23)C(=O)N1CCCNCCCCCCCCCCCCNCCCN1C(=O)c2cccc3cccc(c23)C1=O |  |  |  | 81.2 °C | 5.11 µM |  | 4.17 µM | 3.4 µM | 6.83 µM |  | 6.88 µM | 
3 | O=C1c2cccc3cccc(c23)C(=O)N1CCCNCCCCNCCCN1C(=O)c2cccc3cccc(c23)C1=O |  |  |  | 89.2 °C | 7.86 µM |  | 8.1 µM | 1.5 µM | 5.67 µM |  | 5.12 µM | 
4 | CC(/C=N/NC(=N)N)=N\NC(=N)N [MITOGUAZONE] | 3.3 µM | > 100 µM |  |  |  |  |  |  |  | > 30.2 |  | 
5 | O=C1c2ccccc2C(=O)N1CCCNCCCCCCCCCCNCCCN1C(=O)c2ccccc2C1=O |  |  |  | 72 °C | > 40 µM |  | > 40 µM | > 10 µM | > 40 µM |  | > 40 µM | 
6 | Br.O=C1c2cccc3cccc(c23)C(=O)N1CCCNCCCCCCCCNCCCN1C(=O)c2cccc3cccc(c23)C1=O | 5.8 µM | 5.1 µM |  | 88.7 °C | 4.99 µM |  | 2.77 µM | 1.7 µM | 0.87 µM | 0.9 | 2.68 µM | Active
7 | CN1CCN(c2ccc3[nH]c(-c4ccc5[nH]c(-c6ccc(O)cc6)nc5c4)nc3c2)CC1 |  |  |  | 78.8 °C |  |  |  |  |  |  |  | 
8 | O=C1c2cccc3cccc(c23)C(=O)N1CCCNC1CCCC(CC2CCCC(NCCCN3C(=O)c4cccc5cccc(c45)C3=O)C2)C1 (configuration not stated) | 6.2 µM | 6.3 µM |  | 87.4 °C | 6.84 µM |  | 6.06 µM | 3.8 µM | 5.71 µM | 1 | 6.06 µM | 
9 | O=C1c2cccc3cccc(c23)C(=O)N1CCCNCCCNCCCCNCCCNCCCN1C(=O)c2cccc3cccc(c23)C1=O |  |  |  |  |  | 1.38 µM |  |  |  |  |  | 
10 | NCCCN1C(=O)c2cccc3cccc(c23)C1=O [NAPHTHALIMIDOPROPYLAMINE] |  |  |  | 66.3 °C | > 40 µM |  | > 40 µM | > 10 µM | > 40 µM |  | > 40 µM | 
11 | O=C1c2c(O)ccc(O)c2C(=O)c2c(NCCNCCO)ccc(NCCNCCO)c21 |  |  |  | 91 °C |  |  |  |  |  |  |  | 
12 | O=C1c2cccc3cccc(c23)C(=O)N1CCCNCCCCCCNCCCN1C(=O)c2cccc3cccc(c23)C1=O |  |  |  | 91.9 °C | 7.22 µM |  | 0.84 µM | 1.5 µM | 0.83 µM |  | 4.54 µM | 
13 | O=C1c2cccc3cccc(c23)C(=O)N1CCCNCCCCCCCCCCNCCCN1C(=O)c2cccc3cccc(c23)C1=O [BNIPDADEC] |  |  |  | 84.4 °C | 4.85 µM |  | 2.77 µM | 1.8 µM | 2.82 µM |  | 3.32 µM | 
14 | COc1cccc2c1C(=O)c1c(O)c3c(c(O)c1C2=O)C[C@@](O)(C(=O)CO)C[C@@H]3O[C@H]1C[C@H](N)[C@H](O)[C@H](C)O1 [DOXORUBICIN] |  |  |  | 86.4 °C | 14.3 µM |  | 0.75 µM |  | 0.18 µM |  | 3.61 µM | 
15 | Br.O=C1c2cccc3cccc(c23)C(=O)N1CCCNCCOCCOCCNCCCN1C(=O)c2cccc3cccc(c23)C1=O | 76.1 µM | 26.9 µM | Active | 87.9 °C | 12.4 µM |  | 6.1 µM | 1.9 µM | 2.27 µM | 0.4 | 6.15 µM | 
